Where “and” joins values, the source holds several entries; their conditions need not be identical. Equal values may be shown once.
What was measured:
[1] = test system: DEspR+/CD11b+ neutrophils; assay: ex vivo treatment of ARDS patient whole blood, neutrophil survival (FACS); assay type: cell-based, human; design: baseline DEspR+/CD11b+ neutrophil percentage: concentration or dose not given beside the values; settings: for Observed decrease in neutrophil survival: 10 μg/ml; for baseline DEspR+/CD11b+ neutrophil percentage: equals baseline DEspR+/CD11b+ neutrophils
Method: Neutrophils were gated for unique size/granularity properties via FSC (size) and SSC (granularity) gating. […] FSC, forward side scatter. SSC, side scatter. N=4-5 replicates; mean+/−SD. Whole blood incubated at 37 C for 24 hours (reg incubator, rotating, in HEPES buffer) for A02 and A03. 37 C for 6 hours for A04, A05, and A06. ABTM-468(cho) at 10 ug/mL. *, P=0.0286 Mann-Whitney Rank Sum Test. ARDS patients survivors: A01, A04, A05, A06. ARDS non-survivor: A02.

activated neutrophils = assay: dose-response survival assay of activated neutrophils (Trypan blue dye exclusion); assay type: cell-based; settings: live cells counted by Trypan blue dye exclusion; listed as 6g8-humab; read-out: IC50, inhibition of activated neutrophil survival
Text: FIG. 6 depicts a graph comparison of functional activity of anti-DEspR fully humanized 6g8 mAb, 6g8-humab, and prototype murine anti-DEspR 6g8 mAb, 6g8-mumab.
(§1) FIGS. 17A-17C depict anti-DEspR-mab (hu6g8 mab). FIG. 17A depicts a diagram of DEspR, murine precursor mabs and humanized IgG and IgG4 mabs. Hu6g8 is notated as 6g8g7-hu-IgG4 raised against epitope 2, spanning the putative binding domain.
Described herein are the advantages of anti-DEspR mAb targeted AECs. DEspR, the dual endothelin1/signal peptide receptor,^9 is a validated target on human activated neutrophils and NETs. Hu6g8 binds human activated neutrophils (FIG. 18A) and NETs (FIG. 18B), as confirmed by Western Blot analysis of DEspR protein in human kidney (K), and activated neutrophil samples, act-Ns (FIG. 18C). Humanized anti-DEspR-mab (hu6g8 mab) is an ideal targeting moiety. Hu6g8 is the multi-species Human/NHPrimate/Rat reactive humanized-deimmunized anti-DEspR-mab with a hinge-stabilized IgG4S228P/kappa Fc region (FIG. 17A) to avoid (ADCC-antibody dependent cell-mediated cytotoxicity, CDC-complement dependent cytotoxicity), and to eliminate loss of targeting upon Fab arm exchange typical of native IgG4 isotype. […] Through recombinant DNA technology, the antibody design incorporates: a) avoidance of T-cell epitopes for low immunogenicity; b) optimization of heavy and light chain interactions for stability of variable domains; and, c) exclusion of destabilizing post-translational modification sites [e.g., deamidation, oxidation]. The targeting of DEspR^+ NETs, but sparing of DEspR(−) quiescent neutrophils via the anti-DEspR mAb is also novel. […] The use of human neutrophil-elastase cleavable linker is advantageous as this connector-peptide can be added by recombinant technology and HNE is enriched on NETs and actually a reason for the injurious properties of NETs. HNE is desirable for local therapeutic delivery [Owen C A, Campbell E J. J Leukocyte Biol 1999, 65 (2) 137-150], has specificity for small uncharged amino acids particularly alanine (A) and valine (V) [Meers P. Adv Drug Delivery Rev. 2001. 53 (3) 265-272]. […] The advantages of all three in an AEC is novel and robust as the targeted delivery and release of DNAse 1 on NETs can attain in vivo efficacy of what has been shown in vitro, the induction of macrophage uptake-and-clearance of NETs upon DNAse 1 digest of NETs DNA. In summary, targeting the intravascular NETs sites. The humanized anti-DEspR-mab with a hinge-stabilized IgG4/kappa Fc region to avoid Fab arm exchange in vivo and ensuing loss of targeting was selected. Additionally, this avoids immune effector functions of IgG1 mAbs (ADCC, CDC), which would worsen endothelial injury. […]

Panc1 xenograft = Panc1 xenograft model survival; settings: in vivo
[2] = molecular target: T1, DEspR on intact human cells (Homo sapiens, UniProt B0L3A2); assay: hu6g8 binding to DEspR on intact human cells; settings: done in triplicate
T1 construct: endogenous in cells; host or cells: intact human cells / 'DEspR+ human cells'
T1 sequence (B0L3A2 1-85): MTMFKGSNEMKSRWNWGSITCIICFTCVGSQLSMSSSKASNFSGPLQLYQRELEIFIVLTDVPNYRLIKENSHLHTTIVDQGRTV
Text: as §1
Described herein is the development, characterization, and validation of a fully humanized anti-DEspR mAb with a S228P hinge-stabilized IgG4/kappa FC region, designated herein as hu-6g8 or […]. The hu-6g8 was designed for high binding affinity to DEspR+ human cells and inhibition of activated neutrophil survival. hu-6g8 is reactive in all species, having identical epitopes in human, primates and rodents, which facilitates preclinical and clinical studies using the therapeutic lead. […] (FIG. 6). Through recombinant DNA technology, hu-6g8 was designed with optimal biophysical properties via: a) avoidance of T-cell epitopes for low immunogenicity—‘deimmunized’, b) optimization of heavy and light chain interactions for stability of variable domains, and c) exclusion of destabilizing post-translational modification sites [deamidation, oxidation, acid-lability, inappropriate N-glycosylation, isomerization and pyroglutamate formation].
Described herein are the advantages of anti-DEspR mAb targeted AECs. DEspR, the dual endothelin1/signal peptide receptor,^9 is a validated target on human activated neutrophils and NETs. […]

[3] = complete blood counts in Panc1-CSC xenograft (CDX) tumor model; assay type: in vivo, rat; settings: CBC weekly from day 21, vs non-treated controls
Method: Complete blood counts (CBC) were measured weekly starting day 21-1 week after treatment onset on day 14 (14 days after Panc1-CSC xenograft (CDX) tumor establishment).

EC50 [2]: < 5 nM and 4.2 nM
Substance: hu-6g8: fully humanized anti-DEspR mAb with a S228P hinge-stabilized IgG4/kappa FC region
Observed decrease in neutrophil survival ([1]; patient A02 (Died), incubation 24 hrs, 79 hrs from ARDS diagnosis, baseline DEspR+/CD11b+ 59.2%, P 0.029, listed as anti-DEspR humanized IgG4S228P antibody): decreased survival
baseline DEspR+/CD11b+ neutrophil percentage ([1]; patient A02): 59.2%
Observed decrease in neutrophil survival ([1]; patient A03 (DNR, D.), incubation 24 hrs, 96 hrs from diagnosis, baseline DEspR+/CD11b+ 1.5%): No effect
baseline DEspR+/CD11b+ neutrophil percentage ([1]; patient A03): 1.5%
Observed decrease in neutrophil survival ([1]; patient A04 (Surv), incubation 6 hrs, 96 hrs from diagnosis, baseline DEspR+/CD11b+ 0.9%, listed as ABTM-468): No effect
Observed decrease in neutrophil survival ([1]; patient A04 (Surv), incubation 6 hrs, 96 hrs from diagnosis, baseline DEspR+/CD11b+ 0.9%, listed as anti-DEspR humanized IgG4S228P antibody): no effect
baseline DEspR+/CD11b+ neutrophil percentage ([1]; patient A04): 0.9%
Observed decrease in neutrophil survival ([1]; patient A05 (Surv), incubation 6 hrs, 72 hrs from diagnosis, baseline DEspR+/CD11b+ 3%, listed as ABTM-468): No effect
Observed decrease in neutrophil survival ([1]; patient A05 (Surv), incubation 6 hrs, 72 hrs from diagnosis, baseline DEspR+/CD11b+ 3%, listed as anti-DEspR humanized IgG4S228P antibody): no effect
baseline DEspR+/CD11b+ neutrophil percentage ([1]; patient A05): 3%
Observed decrease in neutrophil survival ([1]; patient A06 (Surv), incubation 6 hrs, 48 hrs from diagnosis, baseline DEspR+/CD11b+ 16.1%, n.s., listed as anti-DEspR humanized IgG4S228P antibody): Some efficacy is observed but variable
baseline DEspR+/CD11b+ neutrophil percentage ([1]; patient A06): 16.1%
IC50 (activated neutrophils): < 8 nM and 7.7 nM
survival (Panc1 xenograft): increased survival
numbers of quiescent neutrophils (neutropenia side effect) ([3]; treatment onset day 14): does not cause decreased numbers of quiescent neutrophils
platelet counts [3]: does not cause decreased platelet counts
red blood cell counts [3]: does not cause decreased platelet counts or red blood cell counts

From patent US10849966B2, “Methods for treating netosis and neutrophil activation” (TRUSTEES OF BOSTON UNIVERSITY, priority 2017, dated 2020)
